According to patent publication JP2008280350A, “ナリンゲニンカルコンを有効成分とするヒスタミン遊離抑制剤又はロイコトリエン遊離抑制剤を含有する医薬品、飲食品又は化粧品” (Kikkoman Corp, priority 2000, dated 2001):
Converted amounts (≈) assume the structure as drawn. Where two headings read alike, the source gives them in different places.

Assays:
[1] = system: rat mast cells [ラット肥満細胞]; assay: Histamine release inhibition from rat mast cells (compound 48/80 induced); type: cell-based; conditions: for IC50: Rattus norvegicus, Mast cell, 10 min, read-out: IC50 (50% inhibition rate), histamine release
[2] = system: cell suspension prepared as in Example 2 (rat mast cells) [ラット肥満細胞]; assay: Cytotoxicity test (trypan blue cell viability); type: cell-based; conditions: 37°C, 0, 10, 20, 60, 120 min
[3] = system: mouse ear edema model [マウス耳介浮腫モデル]; assay: Anaphylaxis inhibition in mouse ear edema model; type: in vivo; conditions: C3H/Hecrj mice, female; oral; 0.8, 0.16, 0.032, 0.0064 mg/kg; 6 doses over 5 days; anti-TNP-IgE, picryl chloride (Fig. 4)
[4] = system: rat macrophages [ラットマクロファージ]; assay: Leukotriene B4 release inhibition from rat macrophages (opsonized zymosan induced); type: cell-based; conditions: sample added 30 min before zymosan, LTB4 by ELISA (Table 2)

Structure (SMILES) | IC50 ([1]; compound 48/80 (5 μg/ml) as inducer, 37°C, sample solutions 25-250 μg/ml) | histamine release inhibitory activity (in words) ([1]; compound 48/80 as inducer, compared with ketotifen fumarate (Table 1)) | histamine release inhibitory activity relative to ketotifen fumarate (fold) ([1]; from IC50 values, versus ketotifen fumarate) | cytotoxicity (cell viability, number of viable cells) [2] | anaphylaxis inhibitory activity (ear edema) [3] | leukotriene release inhibitory activity [4] | IC50 [1]
O=C(/C=C/c1ccc(O)cc1)c1c(O)cc(O)cc1O [ナリンゲニンカルコン, 2’4’6’4’−Tetrahydroxychalcone] | ~70 µg/mL (≈ 257 µM) | 公知のヒスタミン遊離抑制剤であるフマル酸ケトチフェンよりも強い、ヒスタミン遊離抑制活性を示した | ~3.5 倍 (fold) | 細胞毒性は見られなかった | 容量依存的なアナフィラキシー抑制活性を示した | 用量依存的に、ロイコトリエン遊離抑制活性を示した | –
CN1CCC(=C2c3ccccc3CC(=O)c3sccc32)CC1 [フマル酸ケトチフェン, reference compound] | – | – | – | – | – | – | ~250 µg/mL (≈ 808 µM)
